Assays:
[1] = system: Methicillin Resistant Staphylococcus aureus strain USA 200; experiment: Minimum inhibitory concentration (MIC), CLSI broth micro-dilution, S. aureus; format: cell-based; conditions: Staphylococcus aureus, MRSA / USA200, MRSA USA 200, cation adjusted Mueller Hinton Broth + 0.002% Tween-80, 35° C., 22 hours
Procedure: In vitro antimicrobial activity of each compound was determined by measuring minimal inhibitor concentrations (MICs) using the broth micro-dilution technique as approved by the Clinical and Laboratory Standards Institute (CLSI) (Methods for Dilution Antimicrobial Susceptibility Tests for Bacteria that Grow Aerobically; Approved Standard-Eighth Edition. CLSI document M07-A8. Wayne, PA: Clinical and Laboratroy Standards; 2009). Antibacterial activity was measure against two strains of bacteria: a Methicillin Resistant Staphylococcus aureus strain USA 200, (S. aureus) and Escherichia coli ATCC 25922 (E. coli), a clinically relevant Gram-negative strain. Cells were inoculated onto plates of Trypyticase Soy Agar or Luria Agar respectively and grown at 35° C. for 20 hours. Inocula suspensions were prepared by scraping cells into 1 mL of testing media (cation adjusted Mueller Hinton Broth supplemented with 0.002% v/v Tween-80) and diluting to a final OD600nm of 0.01.
Test compounds were prepared in DMSO at a concentration of 10 mg/mL. In protocol 1, the compound stocks were diluted into testing media at a concentration of 64 µg/ml and serial 2-fold dilutions were made in the same media, in 96-well U bottom microtiter dishes, for a total of 10 compound concentrations. In protocol 2, the compound stocks were diluted into testing media at a concentration of 4 µg/mL and serial 2-fold dilutions were made in the same media, in 96-well U bottom microtiter dishes, for a total of 10 compound concentrations. In protocol 3, compound stocks were diluted into testing media at a concentration of 0.5 μg/mL, with serial 2-fold dilutions conducted as described above. In protocol 4, compound stocks were diluted into testing media at a concentration of […], with serial 2-fold dilutions conducted as described above. Inocula suspensions were added to the 2-fold serial dilutions of test compounds to a final density of GD OD600nm of 0.0005 and incubated at 35° C. for 22 hours.

[2] = system: Escherichia coli ATCC 25922; experiment: Minimum inhibitory concentration (MIC), CLSI broth micro-dilution, E. coli; format: cell-based; conditions: Escherichia coli, ATCC25922, 22 h
Procedure, shortened: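 Antibacterial potency is measured as MIC by the CLSI broth dilution method. Bacteria at OD600 0.0005 in Tween-80-supplemented cation-adjusted Mueller Hinton broth face ten twofold compound dilutions for 22 h at 35° C.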

[3] = Table 6, cation adjusted Mueller Hinton Broth + 0.002% Tween-80, 35° C.

SMILES | MIC ([1]; Table 6) | MIC [2, 3] | MIC ([1]; Table 8) | MIC ([2]; Table 8, cation adjusted Mueller Hinton Broth + 0.002% Tween-80, 35° C.)
CCCCCCc1ccc(C(=O)N[C@@H](CCN)C(=O)N(CCN)[C@@H]2C(=O)N[C@@H](C)C(=O)N[C@H](C(=O)NCC#N)Cc3ccc(O)c(c3)-c3cc2ccc3O)c(C)c1 (racemic) [Compound 474, rac-(8S,11S,14S)-14-[2-aminoethyl-[rac-(2S)-4-amino-2-[(4-hexyl-2-methyl-benzoyl)amino]butanoyl]amino]-N-(cyanomethyl)-3,18-dihydroxy-11-methyl-10,13-dioxo-9,12-diazatricyclo[13.3.1.12,6]icosa-1(18),2(20),3,5,15(19),16-hexaene-8-carboxamide] | 0.11 µM | 4.8 µM |  | 
Cc1nc(-c2ccc(C(C)(C)C)cc2)nc(C)c1C(=O)N[C@@H](CCN)C(=O)N(C)[C@@H]1C(=O)N[C@@H](C)C(=O)N[C@H](C(=O)NCC#N)Cc2ccc(OCCCCN)c(c2)-c2cc1ccc2OCCCCN (racemic) [Compound 437, rac-(8S,11S,14S)-3,18-bis(4-aminobutoxy)-N-(cyanomethyl)-11-methyl-14-[methyl-[rac-(2S)-4-amino-2-[[2-(4-tert-butylphenyl)-4,6-dimethyl-pyrimidine-5-carbonyl]amino]butanoyl]amino]-10,13-dioxo-9,12-diazatricyclo[13.3.1.12,6]icosa-1(18),2(20),3,5,15(19),16-hexaene-8-carboxamide] | 0.031 µM | 0.38 µM |  | 
CCCC1(c2ccc(-c3nc(C)c(C(=O)N[C@@H](CCN)C(=O)N(C)[C@@H]4C(=O)N[C@@H](C)C(=O)N[C@H](C(=O)NCC#N)Cc5ccc(OCCN)c(c5)-c5cc4ccc5OCCN)c(C)n3)cc2)CC1 (racemic) [Compound 282, rac-(8S,11S,14S)-3,18-bis(2-aminoethoxy)-N-(cyanomethyl)-11-methyl-14-[methyl-[rac-(2S)-4-amino-2-[[4,6-dimethyl-2-[4-(1-propylcyclopropyl)phenyl]pyrimidine-5-carbonyl]amino]butanoyl]amino]-10,13-dioxo-9,12-diazatricyclo[13.3.1.12,6]icosa-1(18),2(20),3,5,15(19),16-hexaene-8-carboxamide] | 0.016 µM | 0.094 µM |  | 
Cc1nc(-c2ccc(C(C)(C)C)cc2)c(Cl)cc1C(=O)N[C@@H](CCN)C(=O)N(C)[C@@H]1C(=O)N[C@@H](C)C(=O)N[C@H](C(=O)NCC#N)Cc2ccc(OCCN)c(c2)-c2cc1ccc2OCCN (racemic) [Compound 407, rac-(8S,11S,14S)-3,18-bis(2-aminoethoxy)-N-(cyanomethyl)-11-methyl-14-[methyl-[rac-(2S)-4-amino-2-[[6-(4-tert-butylphenyl)-5-chloro-2-methyl-pyridine-3-carbonyl]amino]butanoyl]amino]-10,13-dioxo-9,12-diazatricyclo[13.3.1.12,6]icosa-1(18),2(20),3,5,15(19),16-hexaene-8-carboxamide] | 0.016 µM | 0.13 µM |  | 
Cc1nc(-c2ccc(C(C)(C)C)cc2)ncc1C(=O)N[C@@H](CCN)C(=O)N(C)[C@@H]1C(=O)N[C@@H](C)C(=O)N[C@H](C(=O)NCC#N)Cc2ccc(O)c(c2)-c2cc1ccc2OCCN (racemic) [Compound 523, rac-(8S,11S,14S)-18-(2-aminoethoxy)-N-(cyanomethyl)-3-hydroxy-11-methyl-14-[methyl-[rac-(2S)-4-amino-2-[[2-(4-tert-butylphenyl)-4-methyl-pyrimidine-5-carbonyl]amino]butanoyl]amino]-10,13-dioxo-9,12-diazatricyclo[13.3.1.12,6]icosa-1(18),2(20),3,5,15(19),16-hexaene-8-carboxamide] | 0.044 µM | 0.28 µM |  | 
CCCCc1ccc(Oc2ccc(C(=O)N[C@@H](CCN)C(=O)N(C)[C@@H]3C(=O)N[C@@H](C)C(=O)N[C@H](C(=O)NCC#N)Cc4ccc(OCCN)c(c4)-c4cc3ccc4OCCN)c(Cl)c2)cc1 (racemic) [Compound 377, rac-(8S,11S,14S)-3,18-bis(2-aminoethoxy)-N-(cyanomethyl)-11-methyl-14-[methyl-[rac-(2S)-4-amino-2-[[4-(4-butylphenoxy)-2-chloro-benzoyl]amino]butanoyl]amino]-10,13-dioxo-9,12-diazatricyclo[13.3.1.12,6]icosa-1(18),2(20),3,5,15(19),16-hexaene-8-carboxamide] | 0.031 µM | 0.5 µM |  | 
CCC1(Oc2ccc(-c3nc(C)c(C(=O)N[C@@H](CCN)C(=O)N(C)[C@@H]4C(=O)N[C@@H](C)C(=O)N[C@H](C(=O)O)Cc5ccc(OCCN)c(c5)-c5cc4ccc5OCCN)c(C)n3)cc2)CC1 (racemic) [Compound 639, rac-(8S,11S,14S)-3,18-bis(2-aminoethoxy)-11-methyl-14-[methyl-[rac-(2S)-4-amino-2-[[2-[4-(1-ethylcyclopropoxy)phenyl]-4,6-dimethyl-pyrimidine-5-carbonyl]amino]butanoyl]amino]-10,13-dioxo-9,12-diazatricyclo [13.3.1.12,6]icosa-1(18),2(20),3,5,15(19), 16-hexaene-8-carboxylic acid] |  |  | 0.75 µM | 0.38 µM
Cc1nc(-c2ccc(OC3CCCCC3)cc2)nc(C)c1C(=O)N[C@@H](CCO)C(=O)N(C)[C@@H]1C(=O)N[C@@H](C)C(=O)N[C@H](C(=O)NCC#N)Cc2ccc(OCCN)c(c2)-c2cc1ccc2OCCN [Compound 509, (8S,11S,14S)-3,18-bis(2-aminoethoxy)-N-(cyanomethyl)-14-[[(2S)-2-[[2-[4-(cyclohexoxy)phenyl]-4,6-dimethyl-pyrimidine-5-carbonyl]amino]-4-hydroxy-butanoyl]-methyl-amino]-11-methyl-10,13-dioxo-9,12-diazatricyclo[13.3.1.12,6]icosa-1(18),2(20),3,5,15(19),16-hexaene-8-carboxamide] | 0.047 µM | 0.5 µM |  | 
C[C@@H]1NC(=O)[C@@H](N(C)C(=O)[C@H](CCN)NC(=O)C2CCN(c3ccc(C(C)(C)C)cc3)CC2)c2ccc(OCCN)c(c2)-c2cc(ccc2OCCN)C[C@@H](C(=O)NCC#N)NC1=O (racemic) [Compound 389, rac-(8S,11S,14S)-3,18-bis(2-aminoethoxy)-N-(cyanomethyl)-11-methyl-14-[methyl-[rac-(2S)-4-amino-2-[[1-(4-tert-butylphenyl)piperidine-4-carbonyl]amino]butanoyl]amino]-10,13-dioxo-9,12-diazatricyclo[13.3.1.12,6]icosa-1(18),2(20),3,5,15(19),16-hexaene-8-carboxamide] | 0.13 µM | 4 µM |  | 
CCCCCCc1ccc2cc(C(=O)N[C@@H](CCN)C(=O)N(C)[C@@H]3C(=O)N[C@@H](C)C(=O)N[C@H](C(=O)NCC#N)Cc4ccc(OCCN)c(c4)-c4cc3ccc4OCCN)c(C)nc2c1 (racemic) [Compound 394, rac-(8S,11S,14S)-3,18-bis(2-aminoethoxy)-N-(cyanomethyl)-11-methyl-14-[methyl-[rac-(2S)-4-amino-2-[(7-hexyl-2-methyl-quinoline-3-carbonyl)amino]butanoyl]amino]-10,13-dioxo-9,12-diazatricyclo[13.3.1.12,6]icosa-1(18),2(20),3,5,15(19),16-hexaene-8-carboxamide] | 0.0083 µM | 0.2 µM |  | 
Cc1nc(C(C)(C)c2ccc(C(C)(C)C)cc2)nc(C)c1C(=O)N[C@@H](CCN)C(=O)N(C)[C@@H]1C(=O)N[C@@H](C)C(=O)N[C@H](C(=O)NCC#N)Cc2ccc(OCCN)c(c2)-c2cc1ccc2OCCN (racemic) [Compound 288, rac-(8S,11S,14S)-3,18-bis(2-aminoethoxy)-N-(cyanomethyl)-11-methyl-14-[methyl-[rac-(2S)-4-amino-2-[[2-[1-(4-tert-butylphenyl)-1-methyl-ethyl]-4,6-dimethyl-pyrimidine-5-carbonyl]amino]butanoyl]amino]-10,13-dioxo-9,12-diazatricyclo[13.3.1.12,6]icosa-1(18),2(20),3,5,15(19),16-hexaene-8-carboxamide] | 0.023 µM | 1.5 µM |  | 
CCc1ccc(-c2nc(C)c(C(=O)N[C@@H](CCN)C(=O)N(C)[C@@H]3C(=O)N[C@@H](C)C(=O)N[C@H](C(=O)NCC#N)Cc4ccc(OCCN)c(c4)-c4cc3ccc4OCCN)c(C)n2)cc1 (racemic) [Compound 260, rac-(8S,11S,14S)-3,18-bis(2-aminoethoxy)-N-(cyanomethyl)-11-methyl-14-[methyl-[rac-(2S)-4-amino-2-[[2-(4-ethylphenyl)-4,6-dimethyl-pyrimidine-5-carbonyl]amino]butanoyl]amino]-10,13-dioxo-9,12-diazatricyclo[13.3.1.12,6]icosa-1(18),2(20),3,5,15(19),16-hexaene-8-carboxamide] | 0.079 µM | 0.45 µM |  | 

Reference: patent publication US20260274892A1, “MACROCYCLIC BROAD SPECTRUM ANTIBIOTICS” (RQx Pharmaceuticals, Inc., priority 2017, published 2026)
